# Test results taken from patent US20240268372A1, “Methods and Compositions for Extending Organ and Tissue Preservation” (The General Hospital Corporation, priority 2021, published 2024).
# Test system: whole rat livers
# Experiment: Optimized partial freezing of whole rat livers: ex vivo simulated transplantation (normothermic reperfusion with whole blood)
# Settings: −10° C., 1 day
# Description: Within this standardized protocol, we first compared GLY, EG, and PG as main permeating CPA using a freezing temperature of −10° C. and storage duration of 1 day (FIG. 37). Using PG as the CPA, we subsequently tested the effect of freezing temperature (−10° C. vs −15° C.) and storage duration (1 day vs 5 days) on liver viability after partial freezing using the same protocol (FIG. 38).
# The Affinity Pixie Oxygenator is a clinical grade oxygenator that has graduated fiber bundle density technology and radial flow path that is designed to create a more uniform blood flow, enhance gas transfer, reduce pressure drops, and decrease prime volume. Moreover, it also contains a Balance® Biosurface that contains a hydrophilic polymer coating to reduce platelet adhesion and activation. This adaptation to the oxygenator is essential since recirculating whole blood during simulated transplantation may trigger coagulation and inflammatory events that are not representative of in vivo events and could skew observed outcomes.
# Machine perfusion system: The perfusion system provides a continuous perfusion through the portal vein that is pressure, flow, and temperature controlled. The perfusates can be either recirculated or flushed with a single pass though the liver and perfusates can be changed without interrupting perfusion. The setup and operation of the perfusion system is described in detail elsewhere (see, e.g., ref. 15). There were two oxygenators used in this study, including the Radnoti (Cat #130144) and Affinity Pixie Oxygenator (Cat #BBP241). Due to the flexibility and low cost of the Radnoti oxygenator, it was first used for initial optimization and characterization studies, including determining the effect of permeating CPAs (GLY vs EG vs PG; FIG. 37), temperature (−10 vs −15° C., FIG. 38) storage duration (1 vs 5 days, FIG. 38), and warm ischemic injury.
# Preconditioning during SNMP: Directly after procurement the livers were perfused with 250 ml of SNMP preloading solution (see Table 7 for composition of all solutions). The perfusion temperature was set at 21° C. and perfusion was initiated at 5 ml/min. […] Next, the livers were perfused for 30 additional minutes to allow for cellular uptake of 3-O-methyl-D-glucose (3-OMG).
# Preloading of CPAs during HMP: The SNMP preloading solution was gradually switched to HMP preloading solution in […] increments, each with 10% decreasing and 10% increasing volumetric fractions of SNMP and HMP preloading solution, respectively. During this switch, the perfusion temperature was lowered to 4° C., and flows were adjusted to a maximum perfusion pressure of 3 mmHg. Dependent on the flowrate, the solution switch took 10-15 minutes. The HMP preloading was continued for 30 additional minutes to ensure complete equilibration of the solution throughout the peripheral liver tissue.
# This was done in 10 fractions of 10 ml, each with 10% decreasing and 10% increasing volumetric fractions of HMP preloading solution and storage solution, respectively. During this switch, the perfusion temperature was maintained at 4° C., and the flowrates were lowered to ensure a maximum perfusion pressure of 3 mmHg. The final 15 ml fraction of 100% storage solution was loaded at a fixed flowrate of 0.5 ml/min.
# Partial freezing: After loading of the storage solution, the liver was placed in a bag with 50 ml fresh storage solution and suspended in a pre-cooled chiller (Engel, Schwertberg, Austria). Depending on the experimental condition the chiller temperature was pre-cooled to −10° C. or −15° C. and the liver stored for […] 5 days.
smiles,measurement,setting,value
"OCC(O)CO [GLY, glycerol]",bile production during simulated transplantation,,did not produce bile
same,lactate clearance after first hour of simulated transplantation,,not observed
same,"microscopic tissue structure (H&E, blinded pathologist)",,most unfavorable results
same,oxygen uptake during simulated transplantation,at 2 h,17.9 ± 5.86 µL O2/min/g
same,tissue adenylate energy charge,at 2 h,0.064±0.039
same,weight gain during simulated transplantation,at 2 h,19.00±16.63%
same,AST levels,at 2 h of simulated transplantation,1528±388 U/L
